The values below come from US12091405B2, “Substituted pyrazole compounds as indoleamine 2,3-dioxygenase inhibitors” (Merck Sharp & Dohme LLC, priority 2018, dated 2024).

Broadly, the IC50 is the point on the concentration scale where inhibition reaches its midpoint.

Structures are written as SMILES.

For this assay, the target named is IDO1 (Homo sapiens, UniProt P14902). Kind of assay: IDO1 Cellular Assay in HeLa Cells Stimulated with IFNγ. It is filed as cell-based. To be noted: IFNγ 100 ng/mL, 300 uM L-tryptophan, about 48 hours, fluorescence readout, read-out: IDO1 HELA Cell Assay, IC50.
Sequence of IDO1 (P14902 whole entry): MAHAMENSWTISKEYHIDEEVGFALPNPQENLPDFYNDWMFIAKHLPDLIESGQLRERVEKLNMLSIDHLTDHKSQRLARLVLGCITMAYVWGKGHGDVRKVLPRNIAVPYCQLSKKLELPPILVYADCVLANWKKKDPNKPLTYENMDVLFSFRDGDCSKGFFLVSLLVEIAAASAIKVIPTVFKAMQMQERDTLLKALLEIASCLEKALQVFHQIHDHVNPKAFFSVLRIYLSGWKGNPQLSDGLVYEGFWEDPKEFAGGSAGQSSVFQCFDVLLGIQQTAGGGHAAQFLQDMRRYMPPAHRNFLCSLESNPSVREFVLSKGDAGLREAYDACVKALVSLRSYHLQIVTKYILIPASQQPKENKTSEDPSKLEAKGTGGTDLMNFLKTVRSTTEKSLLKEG

Take `Cc1cc(Cl)cc(C2CCN(C(=O)Cn3nc(C(=O)N4C[C@@H](C)O[C@@H](C)C4)c4c3CCC4)CC2)c1` [Example 148, 1-[4-(3-chloro-5-methylphenyl)piperidin-1-yl]-2-{3-[(2R,6S)-2,6-dimethylmorpholine-4-carbonyl]-5,6-dihydrocyclopenta[c]pyrazol-1(4H)-yl}ethan-1-one]: the IC50 is 117 nM. As to `Cc1cccc(C2CCN(C(=O)Cn3nc(C(=O)N4CC[C@H](O)[C@H](F)C4)c4c3CCC4)CC2)c1C` [Example 59, 1-(4-(2,3-dimethylphenyl)piperidin-1-yl)-2-(3-((3R,4S)-3-fluoro-4-hydroxypiperidine-1-carbonyl)-5,6-dihydrocyclopenta[c]pyrazol-1(4H)-yl)ethanone], the IC50 was 1.8 nM.

Take `COc1cccc(C2CCN(C(=O)Cn3nc(C(=O)N4C[C@@H](C)O[C@@H](C)C4)c4c3CCC4)CC2)c1` [Example 108, 2-{3-[(2R,6S)-2,6-dimethylmorpholine-4-carbonyl]-5,6-dihydrocyclopenta[c]pyrazol-1(4H)-yl}-1-[4-(3-methoxyphenyl)piperidin-1-yl]ethan-1-one]: the IC50 amounted to 37.9 nM. As to `Cc1cccc(C2CCN(C(=O)Cn3nc(C(=O)N4CCC(OCCO)CC4)c4c3CCCC4)CC2)c1C` [Example 38, 1-(4-(2,3-dimethylphenyl)piperidin-1-yl)-2-(3-(4-(2-hydroxyethoxy)piperidine-1-carbonyl)-4,5,6,7-tetrahydro-1H-indazol-1-yl)ethanone], the IC50 was determined as 1.9 nM.

Turning to `Cc1cccc(C2CCN(C(=O)Cn3nc(C(=O)N4CCN(C(=O)CO)CC4)c4c3C[C@@H]3C[C@H]43)CC2)c1C` [Example 28, 1-[4-(2,3-dimethylphenyl)piperidin-1-yl]-2-{(3bS,4aS)-3-[4-(hydroxyacetyl)piperazine-1-carbonyl]-3b,4,4a,5-tetrahydro-1H-cyclopropa[3,4]cyclopenta[1,2-c]pyrazol-1-yl}ethan-1-one], the IC50 came out at 41.2 nM. For `Cc1cccc(C2CCN(C(=O)Cn3nc(C(=O)N4CC[C@@H](O)[C@H](F)C4)c4c3CCC4)CC2)c1C` [Example 45, 1-(4-(2,3-dimethylphenyl)piperidin-1-yl)-2-(3-((3R,4R)-3-fluoro-4-hydroxypiperidine-1-carbonyl)-5,6dihydrocyclopenta[c]pyrazol-1(4H)-yl)ethanone], the IC50 turned out to be 8.1 nM.

As to `C[C@@H]1CN(C(=O)c2nn(CC(=O)N3CCC(c4cccc5cnccc45)CC3)c3c2CCC3)C[C@H](C)O1` [Example 171, 2-{3-[(2R,6S)-2,6-dimethylmorpholine-4-carbonyl]-5,6-dihydrocyclopenta[c]pyrazol-1(4H)-yl}-1-[4-(isoquinolin-5-yl)piperidin-1-yl]ethan-1-one], the IC50 was determined as 440 nM. As for `C[C@@H]1CN(C(=O)c2nn(CC(=O)N3CCC(c4cccc(Cl)c4Cl)CC3)c3c2CCC3)C[C@H](C)O1` [Example 87, 1-[4-(2,3-dichlorophenyl)piperidin-1-yl]-2-{3-[(2R,6S)-2,6-dimethylmorpholine-4-carbonyl]-5,6-dihydrocyclopenta[c]pyrazol-1(4H)-yl}ethan-1-one], the figure is 7.8 nM. Next, `C[C@@H]1CN(C(=O)c2nn(CC(=O)N3CCC(c4cc(F)cc(C(F)(F)F)c4)CC3)c3c2CCC3)C[C@H](C)O1` [Example 141, 2-{3-[(2R,6S)-2,6-dimethylmorpholine-4-carbonyl]-5,6-dihydrocyclopenta[c]pyrazol-1(4H)-yl}-1-{4-[3-fluoro-5-(trifluoromethyl)phenyl]piperidin-1-yl}ethan-1-one]: 97.4 nM; `Cc1cc(C(F)(F)F)ccc1C1CCN(C(=O)Cn2nc(C(=O)N3C[C@@H](C)O[C@@H](C)C3)c3c2CCC3)CC1` [Example 162, 2-{3-[(2R,6S)-2,6-dimethylmorpholine-4-carbonyl]-5,6-dihydrocyclopenta[c]pyrazol-1(4H)-yl}-1-{4-[2-methyl-4-(trifluoromethyl)phenyl]piperidin-1-yl}ethan-1-one]: 173 nM; `C[C@@H]1CN(C(=O)c2nn(CC(=O)N3CCC(c4cccc(C(F)(F)F)c4F)CC3)c3c2CCC3)C[C@H](C)O1` [Example 104, 2-{3-[(2R,6S)-2,6-dimethylmorpholine-4-carbonyl]-5,6-dihydrocyclopenta[c]pyrazol-1(4H)-yl}-1-{4-[2-fluoro-3-(trifluoromethyl)phenyl]piperidin-1-yl}ethan-1-one]: 29.8 nM. As for `C[C@@H]1CN(C(=O)c2nn(CC(=O)N3CCC(c4cccc5c(F)cccc45)CC3)c3c2CCC3)C[C@H](C)O1` [Example 85, 2-{3-[(2R,6S)-2,6-dimethylmorpholine-4-carbonyl]-5,6-dihydrocyclopenta[c]pyrazol-1(4H)-yl}-1-[4-(5-fluoronaphthalen-1-yl)piperidin-1-yl]ethan-1-one], the figure is 5.3 nM; as for `C[C@@H]1CN(C(=O)c2nn(CC(=O)N3CCC(c4cccc(C5CC5)c4)CC3)c3c2CCC3)C[C@H](C)O1` [Example 103, 1-[4-(3-cyclopropylphenyl)piperidin-1-yl]-2-{3-[(2R,6S)-2,6-dimethylmorpholine-4-carbonyl]-5,6-dihydrocyclopenta[c]pyrazol-1(4H)-yl}ethan-1-one], 29.6 nM; as for `COc1ccc(C2CCN(C(=O)Cn3nc(C(=O)N4C[C@@H](C)O[C@@H](C)C4)c4c3CCC4)CC2)c(C)c1C` [Example 138, 2-{3-[(2R,6S)-2,6-dimethylmorpholine-4-carbonyl]-5,6-dihydrocyclopenta[c]pyrazol-1(4H)-yl}-1-[4-(4-methoxy-2,3-dimethylphenyl)piperidin-1-yl]ethan-1-one], 87.6 nM.

`Cc1cc(C2CCN(C(=O)Cn3nc(C(=O)N4C[C@@H](C)O[C@@H](C)C4)c4c3CCC4)CC2)cc(C)c1F` [Example 139, 2-{3-[(2R,6S)-2,6-dimethylmorpholine-4-carbonyl]-5,6-dihydrocyclopenta[c]pyrazol-1(4H)-yl}-1-[4-(4-fluoro-3,5-dimethylphenyl)piperidin-1-yl] ethan-1-one]: the IC50 turned out to be 88.3 nM. As for `Cc1c(F)cccc1C1CCCN(C(=O)Cn2nc(C(=O)N3C[C@@H](C)O[C@@H](C)C3)c3c2CCC3)C1` (stereo partly drawn) [Example 77, 2-{3-[(2R,6S)-2,6-dimethylmorpholine-4-carbonyl]-5,6-dihydrocyclopenta[c]pyrazol-1(4H)-yl}-1-[3-(3-fluoro-2-methylphenyl)piperidin-1-yl] ethan-1-one], the figure is 233 nM; as for `Cc1c(C2CCN(C(=O)Cn3nc(C(=O)N4C[C@@H](C)O[C@@H](C)C4)c4c3CCC4)CC2)ccc(F)c1F` [Example 174, 1-[4-(3,4-difluoro-2-methylphenyl)piperidin-1-yl]-2-{3-[(2R,6S)-2,6-dimethylmorpholine-4-carbonyl]-5,6-dihydrocyclopenta[c]pyrazol-1(4H)-yl}ethan-1-one], 10.3 nM.

In the case of `C[C@@H]1CN(C(=O)c2nn(CC(=O)N3CCC(c4ccc(F)cc4F)CC3)c3c2CCC3)C[C@H](C)O1` [Example 165, 1-[4-(2,4-difluorophenyl)piperidin-1-yl]-2-{3-[(2R,6S)-2,6-dimethylmorpholine-4-carbonyl]-5,6-dihydrocyclopenta[c]pyrazol-1(4H)-yl}ethan-1-one], the IC50 is 234 nM. For the compound `C[C@@H]1CN(C(=O)c2nn(CC(=O)N3CCCC(c4ccccc4)CC3)c3c2CCC3)C[C@H](C)O1` (stereo partly drawn) [Example 74, 2-{3-[(2R,6S)-2,6-dimethylmorpholine-4-carbonyl]-5,6-dihydrocyclopenta[c]pyrazol-1(4H)-yl}-1-(4-phenylazepan-1-yl)ethan-1-one], the IC50 was determined as 170 nM. `C[C@@H]1CN(C(=O)c2nn(CC(=O)N3CCC(c4cccc(Cl)c4)CC3)c3c2CCC3)C[C@H](C)O1` [Example 107, 1-[4-(3-chlorophenyl)piperidin-1-yl]-2-{3-[(2R,6S)-2,6-dimethylmorpholine-4-carbonyl]-5,6-dihydrocyclopenta[c]pyrazol-1(4H)-yl}ethan-1-one]: the half-inhibitory concentration (IC50) was 31.5 nM. `Cc1cccc(C2(F)CCN(C(=O)Cn3nc(C(=O)N4CCN(C(=O)CO)CC4)c4c3C[C@H]3C[C@@H]43)CC2)c1C` [Example 11, 1-(4-(2,3-dimethylphenyl)-4-fluoropiperidin-1-yl)-2-((3bR,4aR)-3-(4-(2-hydroxyacetyl)piperazine-1-carbonyl)-3b,4,4a,5-tetrahydro-1H-cyclopropa[3,4]cyclopenta[1,2-c]pyrazol-1-yl)ethanone]: the IC50 stood at 5.4 nM. Take `C[C@@H]1CN(C(=O)c2nn(CC(=O)N3CCC(c4ccc(C(F)(F)F)c(Cl)c4)CC3)c3c2CCC3)C[C@H](C)O1` [Example 169, 1-{4-[3-chloro-4-(trifluoromethyl)phenyl]piperidin-1-yl}-2-{3-[(2R,6S)-2,6-dimethylmorpholine-4-carbonyl]-5,6-dihydrocyclopenta[c]pyrazol-1(4H)-yl}ethan-1-one]: the IC50 came to 329 nM. As for `C[C@@H]1CN(C(=O)c2nn(CC(=O)N3CCC(C)(c4ccccc4)CC3)c3c2CCC3)C[C@H](C)O1` [Example 66, 2-{3-[(2R,6S)-2,6-dimethylmorpholine-4-carbonyl]-5,6-dihydrocyclopenta[c]pyrazol-1(4H)-yl}-1-(4-methyl-4-phenylpiperidin-1-yl)ethan-1-one], the figure is 43.5 nM; as for `C[C@@H]1CN(C(=O)c2nn(CC(=O)N3CCC(c4cc(F)c(F)cc4F)CC3)c3c2CCC3)C[C@H](C)O1` [Example 149, 2-{3-[(2R,6S)-2,6-dimethylmorpholine-4-carbonyl]-5,6-dihydrocyclopenta[c]pyrazol-1(4H)-yl}-1-[4-(2,4,5-trifluorophenyl)piperidin-1-yl]ethan-1-one], 120 nM; as for `Cc1c(C2CCN(C(=O)Cn3nc(C(=O)N4CCC(O)CC4)c4c3C[C@H]3C[C@@H]43)CC2)cccc1C(F)(F)F` [Example 2, 2-((3bR,4aR)-3-(4-hydroxypiperidine-1-carbonyl)-3b,4,4a,5-tetrahydro-1H-cyclopropa[3,4]cyclopenta[1,2-c]pyrazol-1-yl)-1-(4-(2-methyl-3-(trifluoromethyl)phenyl)piperidin-1-yl) ethanone], 1.6 nM.
